# Data as given in patent publication US20220305012A1, “L[…] TREATING SLEEP ISSUES” (EISAI R&D MANAGEMENT CO., LTD., priority 2019, published 2022).
# Tests used:
# Type in all cases: in vivo, human
# [1] = test system: Subjects Having Insomnia Disorder; test: Example 2: subjective sleep onset latency (sSOL), sleep diary; conditions: 6.25 mg
# Text: As used herein, the term “subjective sleep onset latency”, abbreviated as “sSOL”, means the estimated number of minutes from the time that the subject attempted to sleep until sleep onset. In some embodiments, sSOL is derived from data entered in a subject's Sleep Diary.
# (§1) In some embodiments, sleep diaries were used to assess sleep parameters reported by subjects (i.e., subjective assessments) including subjective sleep onset latency (sSOL), subjective sleep efficiency (sSE), subjective WASO (sWASO), and subjective total sleep time (sTST). Subjects were instructed to complete the Sleep Diary developed based on the consensus Sleep Diary as described in Carney et al., “The consensus sleep diary: standardizing prospective sleep self-monitoring,” Sleep 2012; 35(2):287-302. In some embodiments, the Sleep Diary was used to assess the subject's global perception of quality of sleep on the previous night with the following question: “How would you rate the quality of your sleep last night?” Subjects rated the quality of their sleep on a scale from 1 to 9, with 1 being extremely poor and 9 being extremely good. In some embodiments, the Sleep Diary was used to assess subjective ratings of morning sleepiness with the following question: “How alert/sleepy do you feel this morning?” Subjects rated their sleepiness/alertness level on a Likert scale from 1 to 9, with 1 being extremely sleepy and 9 being extremely alert.
# sSOL—subjective sleep onset latency: estimated minutes from the time that the subject attempted to sleep until sleep onset.
# (§2) The treatment period lasted for 31 days. Subjects were randomized in a double-blind manner and received placebo, a tablet containing 5 mg of lemborexant, a tablet containing 10 mg of lemborexant, or a tablet containing 6.25 mg of zolpidem ER.
# (§3) Once home, the subject ingested study drug each night prior to bedtime and completed their sleep diary within 1 hour of waketime.
# [2] = test system: Subjects Having Insomnia Disorder; test: Example 2: wake after sleep onset (WASO), polysomnography; conditions: Zolpidem ER 6.25 mg
# Experimental: (§4) In some embodiments, a sleep parameter is determined objectively using polysomnography. Polysomnography is the monitoring of multiple electrophysiological parameters during sleep and generally includes measurement of EEG activity, electro-oculographic activity and electromyographic activity, as well as other measurements.
# WASO—wake after sleep onset: minutes of wake from the onset of persistent sleep until lights on.
# as §2
# (§5) Within 5 minutes of the subject's mean habitual bedtime, study drug was administered and an overnight polysomnogram recording was initiated. At completion of the recording the following morning (Day 2), postural stability and cognitive performance were assessed. On the Day 2 evening, subjects returned to the clinic and a blood sample was collected before administering study drug, and then study drug was administered within 5 minutes of the subject's mean habitual bedtime. Again, a polysomnogram recording was initiated. The next morning (Day 3), postural stability and cognitive performance were assessed. A blood sample was also collected.
# (§6) On Day 29, subjects returned to the clinic. Study drug was administered within 5 minutes of the subject's mean habitual bedtime and a polysomnogram recording was conducted. On the following morning (Day 30), postural stability and cognitive performance were assessed. After 1.5 hours of waketime, subjects rated their morning sleepiness level.
# (§7) On the evening of Day 30, subjects returned to the clinic. A pre-dose blood sample was collected and study drug was again administered within 5 minutes of the subject's mean habitual bedtime. A polysomnogram recording was initiated. The following morning (Day 31), postural stability and cognitive performance were assessed and a blood sample was obtained. The ISI, FSS, EQ-5D-3L and PGI-Insomnia were administered. Blood and urine samples were collected for routine safety assessment. An electrocardiogram was performed, and vital signs and weight were assessed. The eC-SSRS was then administered to the subject. At 1.5 hours after waketime, subjects rated their morning sleepiness level.
# Another key secondary endpoint was to determine the change from baseline for mean wake after sleep onset on Days 29 and 30 after administration of 5 mg or 10 mg of lemborexant, compared to placebo.
# [3] = test system: Subjects Having Insomnia Disorder; test: Example 2: subjective sleep efficiency (sSE), sleep diary; conditions: Zolpidem ER 6.25 mg
# Text: As used herein, the term “subjective sleep efficiency”, abbreviated as “sSE”, means the proportion of sTST per subjective time spent in bed, calculated as the interval from the time the subject reports attempting to sleep until the time the subject stopped trying to sleep for the night (operationalized as the time the subject got out of bed for the day), and time spent asleep derived from subjective time spent in bed minus sWASO. As used herein, an “improvement of sleep efficiency in Subjective Sleep Efficiency (sSE)” means an increase in sleep efficiency in Subjective Sleep Efficiency (sSE).
# as §1
# sSE—subjective sleep efficiency: proportion of sTST per subjective time spent in bed, calculated as the interval from the time the subject reports attempting to sleep until the time the subject stopped trying to sleep for the night (operationalized as the time the subject got out of bed for the day), and time spent asleep derived from subjective time in bed minus sWASO.
# as §2, §3
# [4] = test system: Subjects Having Insomnia Disorder; test: Example 2: wake after sleep onset in the second half of the night (WASO2H), polysomnography; conditions: Zolpidem ER 6.25 mg
# Experimental: as §4
# WASO2H: wake after sleep onset in the second half of the night: minutes of wake during the interval from 240 minutes after lights off until lights on.
# as §2, §5, §6, §7
# Another key secondary endpoint was to determine the change from baseline for mean wake after sleep onset in the second half of the night on Days 29 and 30 after administration of 5 mg or 10 mg of lemborexant compared to administration of 6.25 mg of zolpidem ER.
# [5] = test system: Subjects Having Insomnia Disorder; test: Example 2: return to sleep latency; conditions: Zolpidem 6.25 mg
smiles,measurement,setting,value
"Cc1ccc(-c2nc3ccc(C)cn3c2CC(=O)N(C)C)cc1 [Zolpidem ER, zolpidem, reference compound]","sSOL Change from Study Baseline, Mean (SD)",[1]; First 7 Nights of Treatment,−16.23 (29.531) minutes
same,"sSOL Change from Study Baseline, Median",[1]; First 7 Nights of Treatment,-10.00 min
same,"sSOL, Mean (SD)",[1]; First 7 Nights of Treatment,44.61 (27.566) minutes
same,"sSOL, Median",[1]; First 7 Nights of Treatment,34.29 min
same,"sSOL Change from Study Baseline, Mean (SD)",[1]; Last 7 Nights of Treatment,−17.04 (30.683) minutes
same,"sSOL Change from Study Baseline, Median",[1]; Last 7 Nights of Treatment,-10.71 min
same,"sSOL, Mean (SD)",[1]; Last 7 Nights of Treatment,43.64 (30.649) minutes
same,"sSOL, Median",[1]; Last 7 Nights of Treatment,37.50 min
same,"sSOL, Mean (SD)",[1]; Study Baseline,60.54 (36.350) minutes
same,"sSOL, Median",[1]; Study Baseline,53.21 min
same,"Wake After Sleep Onset, Change from Study Baseline, Mean (SD)",[2]; Days 1/2,−44.36 (38.074)
same,"Wake After Sleep Onset, Change from Study Baseline, Median",[2]; Days 1/2,−44.13
same,"Wake After Sleep Onset, Mean (SD)",[2]; Days 1/2,69.92 (33.517)
same,"Wake After Sleep Onset, Median",[2]; Days 1/2,62.00
same,"Wake After Sleep Onset, Change from Study Baseline, Mean (SD)",[2]; Days 29/30,−36.50 (43.406)
same,"Wake After Sleep Onset, Change from Study Baseline, Median",[2]; Days 29/30,−34.63
same,"Wake After Sleep Onset, Mean (SD)",[2]; Days 29/30,77.71 (39.932)
same,"Wake After Sleep Onset, Median",[2]; Days 29/30,71.00
same,"Subjective Sleep Efficiency, Change from Study Baseline, Mean (SD)",[3]; First 7 Nights of Treatment,11.96 (12.526)
same,"Subjective Sleep Efficiency, Mean (SD)",[3]; First 7 Nights of Treatment,66.45 (16.419)
same,"Subjective Sleep Efficiency, Model-adjusted change from baseline",[3]; First 7 Nights of Treatment,12.11
same,"Subjective Sleep Efficiency, Change from Study Baseline, Mean (SD)",[3]; Last 7 Nights of Treatment,14.83 (15.011)
same,"Subjective Sleep Efficiency, Mean (SD)",[3]; Last 7 Nights of Treatment,69.45 (16.925)
same,"Subjective Sleep Efficiency, Model-adjusted change from baseline",[3]; Last 7 Nights of Treatment,14.82
same,"Wake After Sleep Onset in the Second Half of the Night, Change from Study Baseline, Mean (SD)",[4]; Days 1/2,−24.64 (33.347)
same,"Wake After Sleep Onset in the Second Half of the Night, Change from Study Baseline, Median",[4]; Days 1/2,−24.13
same,"Wake After Sleep Onset in the Second Half of the Night, Mean (SD)",[4]; Days 1/2,53.30 (27.706)
same,"Wake After Sleep Onset in the Second Half of the Night, Median",[4]; Days 1/2,49.25
same,"Wake After Sleep Onset in the Second Half of the Night, Change from Study Baseline, Mean (SD)",[4]; Days 29/30,−21.42 (36.257)
same,"Wake After Sleep Onset in the Second Half of the Night, Change from Study Baseline, Median",[4]; Days 29/30,−19.13
same,"Wake After Sleep Onset in the Second Half of the Night, Mean (SD)",[4]; Days 29/30,56.74 (31.112)
same,"Wake After Sleep Onset in the Second Half of the Night, Median",[4]; Days 29/30,51.25
same,"Return to Sleep Latency, LSM - Difference vs. Placebo",[5],-21.0 min
same,"Return to Sleep Latency, Mean (SD) change from baseline",[5],-21.2 min
same,"Return to Sleep Latency, Postdose",[5],19.6 min
